The values that follow come from article PMC11440508, “Dually Labeled Neurotensin NTS1R Ligands for Probing Radiochemical and Fluorescence-Based Binding Assays” (Journal of Medicinal Chemistry, 2024).

Assay [1] concerns the target T1, NTS1R (Homo sapiens, UniProt P30989). Description: Radiochemical competition binding, suspended CHO-hNTS1R cells. The note with it: labeled probe [^3H]13 (1.8 nM), 90 min, 23 °C, read-out: RC cell suspension: pKi ± SEM (converted).
Assay [2] has as its target T1, NTS1R. The assay is described as follows: Radiochemical association and dissociation of [^3H]13 at membranes of CHO-hNTS1R cells. The note with it: GppNHp. Type of assay: binding. As to the method: These experiments were performed in 96-well plates using the same procedure as for radiochemical binding experiments with intact suspended cells, but using cell membranes instead of whole cells. Binding of [^3H]13 to the NTS1R was saturable (Figure 6A). […] To note, in addition to GppNHp, saponin (100 μg/mL) was added to the samples to improve ligand permeabilization into vesicles that are likely to occur in membrane preparations. The association curve of [^3H]13 obtained from experiments with cell membranes (Figure 6B) was considerably different compared to the association curve observed for intact suspended cells (cf. Figure 4C). The biphasic character almost disappeared and with a kon value of 0.13 ± 0.05 nM^–1 min^–1 (calculated value ± propagated error) the association was slower compared to the initial phase found for experiments with intact cells (kon = 0.81 nM^–1 min^–1, cf. Table 3). […]
CHO-hNTS1R cells were grown on 175 cm^2 cell culture dishes (ref 83.3903, Sarstedt) to ca. 90% confluency. […] The protein concentration was determined according to the Bradford method[59] in transparent 96-well plates (Greiner Cellstar 655180, Greiner Bio-One, Frickenhausen, Germany) using bovine serum albumin as standard. […]

As a reminder, the koff is the first-order rate constant of dissociation. One may read the kon as the rate constant with which the complex forms.

T1 sequence (P30989 whole entry): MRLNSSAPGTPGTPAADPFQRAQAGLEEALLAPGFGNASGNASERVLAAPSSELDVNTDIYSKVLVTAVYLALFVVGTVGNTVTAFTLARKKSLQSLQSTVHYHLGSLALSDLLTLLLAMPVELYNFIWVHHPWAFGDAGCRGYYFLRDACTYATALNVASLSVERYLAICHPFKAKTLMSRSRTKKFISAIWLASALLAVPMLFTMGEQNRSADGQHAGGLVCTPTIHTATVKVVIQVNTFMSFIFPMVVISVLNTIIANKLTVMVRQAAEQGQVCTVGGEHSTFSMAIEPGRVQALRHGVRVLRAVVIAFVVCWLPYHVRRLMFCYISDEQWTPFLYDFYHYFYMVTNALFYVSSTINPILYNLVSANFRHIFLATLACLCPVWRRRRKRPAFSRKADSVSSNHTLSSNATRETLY

In the case of `CCC(=O)NCCCCNC(=O)N=C(N)NCCC[C@H](NC(=O)[C@@H]1CCCN1C(=O)[C@@H](NC(=O)CCc1cn(CCCNC(=O)c2ccc(-c3c4ccc(=[N+](C)C)cc-4oc4cc(N(C)C)ccc34)c(C(=O)[O-])c2)nn1)C1CCNCC1)C(=O)N[C@@H](CCCNC(=N)N)C(=O)N1CCC[C@H]1C(=O)N[C@@H](Cc1ccc(O)cc1)C(=O)N[C@H](C(=O)N[C@@H](CC(C)C)C(=O)O)[C@@H](C)CC` [Compound 13, N^α-(3-(1-N-((1-Carboxylato-2-(6-(dimethylamino)-3-(dimethyliminio)-3H-xanthen-9-yl)phen-5-yl)1-oxomethyl)aminoprop-3-yl-1H-1,2,3-triazol-4-yl)propanoyl)-2-(piperidin-4-yl)-Gly-Pro-N^ω-[(4-(N-propanoyl)aminobutyl)aminocarbonyl]Arg-Arg-Pro-Tyr-Ile-Leu Tris(hydrotrifluoroacetate)], the Ki on NTS1R [1] was 4.68 nM. In the case of `CCC(=O)NCCCCNC(=O)NC(=N)NCCC[C@H](NC(=O)[C@@H]1CCCN1C(=O)[C@@H](NC(=O)CCc1cn(CCCNC(=O)c2ccc(-c3c4ccc(=[N+](C)C)cc-4oc4cc(N(C)C)ccc34)c(C(=O)[O-])c2)nn1)C1CCNCC1)C(=O)N[C@@H](CCCNC(=N)N)C(=O)N1CCC[C@H]1C(=O)N[C@@H](Cc1ccc(O)cc1)C(=O)N[C@H](C(=O)N[C@@H](CC(C)C)C(=O)O)[C@@H](C)CC` [[^3H]13], the koff at NTS1R [2] (23 °C) was 0.00617 s⁻¹. The kon at NTS1R [2] (calculated value ± propagated error) is 2.17e+06 M⁻¹ s⁻¹.
